Measurements reported in ChEMBL document CHEMBL4507259 (2021).

How the values were obtained:
[1] = molecular target: Kappa-type opioid receptor (Homo sapiens) (UniProt P41145); assay: kappa (KOP) CEREP ligand profiling; details: filed as agonist; Compound concentration 10.0 uM
[2] = molecular target: Type-2 angiotensin II receptor (Homo sapiens) (UniProt P50052); assay: AT2 (h) CEREP ligand profiling; details: filed as agonist, Compound concentration 10.0 uM
[3] = tested on: Tyrosine-protein kinase ABL1 (Homo sapiens), P00519 [M351T]; details: Compound concentration 1000.0 nM
[4] = molecular target: ALK tyrosine kinase receptor (Homo sapiens) (UniProt Q9UM73); details: Compound concentration 1000.0 nM
[5] = molecular target: Bone morphogenetic protein receptor type-2 (Homo sapiens) (UniProt Q13873); details: Compound concentration 1000.0 nM
Bone morphogenetic protein receptor type-2 (Homo sapiens), sequence (Q13873 whole entry): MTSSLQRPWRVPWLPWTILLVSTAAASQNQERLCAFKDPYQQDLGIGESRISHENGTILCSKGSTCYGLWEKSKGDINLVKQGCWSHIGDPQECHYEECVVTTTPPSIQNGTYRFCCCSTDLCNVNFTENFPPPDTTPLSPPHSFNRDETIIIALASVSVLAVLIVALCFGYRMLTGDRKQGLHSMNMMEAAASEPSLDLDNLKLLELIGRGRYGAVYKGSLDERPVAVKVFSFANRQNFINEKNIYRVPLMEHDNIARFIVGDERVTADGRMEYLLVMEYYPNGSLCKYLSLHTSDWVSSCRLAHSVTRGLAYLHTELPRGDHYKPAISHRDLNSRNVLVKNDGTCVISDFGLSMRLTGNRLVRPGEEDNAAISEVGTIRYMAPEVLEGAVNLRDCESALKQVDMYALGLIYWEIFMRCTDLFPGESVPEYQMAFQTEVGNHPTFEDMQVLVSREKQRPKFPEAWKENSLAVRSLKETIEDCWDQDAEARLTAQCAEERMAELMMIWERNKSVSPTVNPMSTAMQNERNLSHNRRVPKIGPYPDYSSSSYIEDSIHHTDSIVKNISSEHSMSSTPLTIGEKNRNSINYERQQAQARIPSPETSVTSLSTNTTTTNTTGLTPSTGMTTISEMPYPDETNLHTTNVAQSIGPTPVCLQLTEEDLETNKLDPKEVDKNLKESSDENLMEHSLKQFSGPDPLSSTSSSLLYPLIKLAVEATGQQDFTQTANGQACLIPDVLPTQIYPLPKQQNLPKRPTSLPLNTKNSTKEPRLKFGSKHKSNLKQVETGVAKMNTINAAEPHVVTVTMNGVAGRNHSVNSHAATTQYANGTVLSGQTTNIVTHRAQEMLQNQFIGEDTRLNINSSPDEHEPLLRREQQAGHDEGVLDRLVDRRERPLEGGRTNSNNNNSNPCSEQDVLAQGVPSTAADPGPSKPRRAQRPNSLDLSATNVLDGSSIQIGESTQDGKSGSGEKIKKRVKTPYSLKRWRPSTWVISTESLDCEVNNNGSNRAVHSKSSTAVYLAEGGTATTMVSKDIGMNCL

[6] = molecular target: Dual specificity protein kinase CLK1 (Homo sapiens) (UniProt P49759); details: Compound concentration 1000.0 nM
Dual specificity protein kinase CLK1 (Homo sapiens), sequence (P49759 whole entry, looked up): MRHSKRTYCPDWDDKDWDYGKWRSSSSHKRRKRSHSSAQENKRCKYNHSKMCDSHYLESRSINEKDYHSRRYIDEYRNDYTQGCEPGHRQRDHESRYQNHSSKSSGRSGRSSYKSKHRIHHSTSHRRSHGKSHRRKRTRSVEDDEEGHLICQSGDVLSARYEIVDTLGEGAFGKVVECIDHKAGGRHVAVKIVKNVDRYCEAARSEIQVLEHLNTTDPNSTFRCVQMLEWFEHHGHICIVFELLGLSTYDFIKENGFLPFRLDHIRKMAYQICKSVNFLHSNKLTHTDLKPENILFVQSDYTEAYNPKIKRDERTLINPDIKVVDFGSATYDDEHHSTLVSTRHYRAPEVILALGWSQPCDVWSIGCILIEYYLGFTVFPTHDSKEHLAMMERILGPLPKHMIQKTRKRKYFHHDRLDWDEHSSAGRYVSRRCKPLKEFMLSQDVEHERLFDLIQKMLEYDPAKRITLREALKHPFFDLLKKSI

[7] = molecular target: Ephrin type-B receptor 3 (Homo sapiens) (UniProt P54753); details: Compound concentration 1000.0 nM
[8] = molecular target: Ephrin type-B receptor 6 (Homo sapiens) (UniProt O15197); details: Compound concentration 1000.0 nM
[9] = molecular target: Mitogen-activated protein kinase 4 (Homo sapiens) (UniProt P31152); details: Compound concentration 1000.0 nM
Mitogen-activated protein kinase 4 (Homo sapiens), sequence (P31152 whole entry): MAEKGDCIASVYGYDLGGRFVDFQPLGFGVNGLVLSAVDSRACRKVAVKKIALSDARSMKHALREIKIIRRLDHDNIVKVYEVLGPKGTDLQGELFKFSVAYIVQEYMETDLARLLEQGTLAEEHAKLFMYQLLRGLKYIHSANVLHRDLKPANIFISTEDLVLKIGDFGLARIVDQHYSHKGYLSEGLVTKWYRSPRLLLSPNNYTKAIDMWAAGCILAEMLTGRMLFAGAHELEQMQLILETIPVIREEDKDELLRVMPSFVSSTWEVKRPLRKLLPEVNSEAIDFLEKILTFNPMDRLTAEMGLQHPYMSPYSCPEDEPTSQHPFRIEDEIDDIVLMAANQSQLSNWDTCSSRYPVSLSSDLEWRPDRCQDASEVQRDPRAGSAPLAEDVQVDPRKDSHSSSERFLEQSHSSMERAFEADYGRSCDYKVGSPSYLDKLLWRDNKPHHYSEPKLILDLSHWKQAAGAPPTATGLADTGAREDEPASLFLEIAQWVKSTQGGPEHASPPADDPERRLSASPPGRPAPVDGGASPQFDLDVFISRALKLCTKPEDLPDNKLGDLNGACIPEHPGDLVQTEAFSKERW

[10] = molecular target: Fibroblast growth factor receptor 1 (Homo sapiens) (UniProt P11362); details: Compound concentration 1000.0 nM
[11] = molecular target: Serine/threonine-protein kinase ICK (Homo sapiens) (UniProt Q9UPZ9); details: Compound concentration 1000.0 nM
[12] = molecular target: Inhibitor of nuclear factor kappa-B kinase subunit epsilon (Homo sapiens) (UniProt Q14164); details: Compound concentration 1000.0 nM
[13] = molecular target: Serine/threonine-protein kinase MRCK beta (Homo sapiens) (UniProt Q9Y5S2); details: Compound concentration 1000.0 nM
[14] = molecular target: Serine/threonine-protein kinase Nek3 (Homo sapiens) (UniProt P51956); details: Compound concentration 1000.0 nM
Serine/threonine-protein kinase Nek3 (Homo sapiens), sequence (P51956 whole entry, the tested form may be a part): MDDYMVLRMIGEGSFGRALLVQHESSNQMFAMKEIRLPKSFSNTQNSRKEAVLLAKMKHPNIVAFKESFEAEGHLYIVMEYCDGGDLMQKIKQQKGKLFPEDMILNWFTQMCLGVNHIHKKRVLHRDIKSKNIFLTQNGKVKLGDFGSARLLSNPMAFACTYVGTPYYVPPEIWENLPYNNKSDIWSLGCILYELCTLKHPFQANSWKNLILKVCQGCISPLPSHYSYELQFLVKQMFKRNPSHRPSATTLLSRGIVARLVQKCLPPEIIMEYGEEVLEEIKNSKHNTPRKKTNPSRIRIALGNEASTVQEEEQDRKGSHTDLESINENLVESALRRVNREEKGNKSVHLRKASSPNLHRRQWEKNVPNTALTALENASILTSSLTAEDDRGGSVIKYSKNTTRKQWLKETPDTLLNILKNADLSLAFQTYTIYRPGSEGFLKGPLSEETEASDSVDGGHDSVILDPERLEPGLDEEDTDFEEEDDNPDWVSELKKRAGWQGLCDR

[15] = molecular target: Phosphatidylinositol 4-phosphate 3-kinase C2 domain-containing subunit beta (Homo sapiens) (UniProt O00750); details: Compound concentration 1000.0 nM
[16] = tested on: Phosphatidylinositol 4,5-bisphosphate 3-kinase catalytic subunit alpha isoform (Homo sapiens), P42336 [E545K]; details: Compound concentration 1000.0 nM
Phosphatidylinositol 4,5-bisphosphate 3-kinase catalytic subunit alpha isoform (Homo sapiens), P42336 [E545K], sequence (P42336 whole entry E545K, canonical isoform): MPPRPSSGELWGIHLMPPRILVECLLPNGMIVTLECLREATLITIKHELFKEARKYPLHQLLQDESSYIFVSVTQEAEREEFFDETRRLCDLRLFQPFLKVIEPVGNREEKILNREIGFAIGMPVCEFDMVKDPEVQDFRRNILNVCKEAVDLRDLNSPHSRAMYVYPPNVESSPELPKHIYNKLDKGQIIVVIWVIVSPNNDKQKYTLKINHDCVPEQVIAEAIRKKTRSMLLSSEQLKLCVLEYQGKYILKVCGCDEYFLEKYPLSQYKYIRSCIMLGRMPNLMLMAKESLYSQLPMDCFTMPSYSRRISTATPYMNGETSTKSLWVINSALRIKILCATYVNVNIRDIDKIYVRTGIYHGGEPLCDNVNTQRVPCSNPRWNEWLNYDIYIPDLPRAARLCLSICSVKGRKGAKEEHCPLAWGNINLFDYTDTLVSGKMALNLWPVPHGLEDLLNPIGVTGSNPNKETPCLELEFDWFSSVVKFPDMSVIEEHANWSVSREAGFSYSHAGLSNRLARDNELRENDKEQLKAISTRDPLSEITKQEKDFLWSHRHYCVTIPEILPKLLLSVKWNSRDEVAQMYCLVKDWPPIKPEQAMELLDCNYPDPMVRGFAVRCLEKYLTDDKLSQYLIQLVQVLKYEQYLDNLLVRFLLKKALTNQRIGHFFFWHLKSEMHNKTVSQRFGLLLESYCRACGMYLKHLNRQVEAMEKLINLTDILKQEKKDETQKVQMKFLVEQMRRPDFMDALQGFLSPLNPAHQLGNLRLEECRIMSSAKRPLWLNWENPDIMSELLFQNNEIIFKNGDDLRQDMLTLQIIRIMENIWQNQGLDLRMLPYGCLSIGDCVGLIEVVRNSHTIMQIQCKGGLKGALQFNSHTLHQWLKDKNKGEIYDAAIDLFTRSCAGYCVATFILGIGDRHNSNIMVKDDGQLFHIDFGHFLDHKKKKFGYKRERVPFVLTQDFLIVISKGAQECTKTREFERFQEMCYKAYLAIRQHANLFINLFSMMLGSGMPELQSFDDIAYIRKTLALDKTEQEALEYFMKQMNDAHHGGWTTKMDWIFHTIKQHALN

[17] = molecular target: cAMP-dependent protein kinase catalytic subunit beta (Homo sapiens) (UniProt P22694); details: Compound concentration 1000.0 nM
[18] = tested on: Proto-oncogene tyrosine-protein kinase receptor Ret (Homo sapiens), P07949 [V804M]; details: Compound concentration 1000.0 nM
[19] = molecular target: Serine/threonine-protein kinase tousled-like 1 (Homo sapiens) (UniProt Q9UKI8); details: Compound concentration 1000.0 nM
Serine/threonine-protein kinase tousled-like 1 (Homo sapiens), sequence (Q9UKI8 whole entry): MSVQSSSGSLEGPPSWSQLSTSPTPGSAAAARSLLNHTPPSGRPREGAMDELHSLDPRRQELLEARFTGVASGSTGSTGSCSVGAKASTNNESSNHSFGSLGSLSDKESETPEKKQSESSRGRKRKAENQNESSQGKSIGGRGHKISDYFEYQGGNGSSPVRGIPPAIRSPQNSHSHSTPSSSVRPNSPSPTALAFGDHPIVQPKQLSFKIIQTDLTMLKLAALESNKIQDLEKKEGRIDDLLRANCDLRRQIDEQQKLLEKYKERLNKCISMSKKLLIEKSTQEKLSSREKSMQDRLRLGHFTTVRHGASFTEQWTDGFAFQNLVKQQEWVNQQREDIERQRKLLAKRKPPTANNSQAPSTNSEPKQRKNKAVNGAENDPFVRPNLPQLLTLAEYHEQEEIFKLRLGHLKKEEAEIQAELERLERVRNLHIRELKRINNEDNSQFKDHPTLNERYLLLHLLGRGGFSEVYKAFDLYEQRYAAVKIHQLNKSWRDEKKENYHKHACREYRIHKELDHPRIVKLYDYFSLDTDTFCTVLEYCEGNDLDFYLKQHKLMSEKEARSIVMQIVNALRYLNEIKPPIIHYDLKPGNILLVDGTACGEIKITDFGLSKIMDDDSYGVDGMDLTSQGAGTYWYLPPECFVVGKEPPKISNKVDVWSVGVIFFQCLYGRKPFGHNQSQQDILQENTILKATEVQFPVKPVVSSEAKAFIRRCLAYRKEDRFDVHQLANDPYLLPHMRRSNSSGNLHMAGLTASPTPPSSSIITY

[20] = molecular target: Serine/threonine-protein kinase 32B (Homo sapiens) (UniProt Q9NY57); details: Compound concentration 1000.0 nM
[21] = molecular target: 5-hydroxytryptamine receptor 1E (Homo sapiens) (UniProt P28566); details: Compound concentration 10.0 uM
[22] = molecular target: 5-hydroxytryptamine receptor 2B (Homo sapiens, UniProt P41595); details: Compound concentration 10.0 uM
[23] = molecular target: Histamine H4 receptor (Homo sapiens) (UniProt Q9H3N8); details: Compound concentration 10.0 uM
[24] = molecular target: T1, Alpha-2A adrenergic receptor (Homo sapiens) (UniProt P08913); details: Compound concentration 10.0 uM
T1 sequence (whole entry): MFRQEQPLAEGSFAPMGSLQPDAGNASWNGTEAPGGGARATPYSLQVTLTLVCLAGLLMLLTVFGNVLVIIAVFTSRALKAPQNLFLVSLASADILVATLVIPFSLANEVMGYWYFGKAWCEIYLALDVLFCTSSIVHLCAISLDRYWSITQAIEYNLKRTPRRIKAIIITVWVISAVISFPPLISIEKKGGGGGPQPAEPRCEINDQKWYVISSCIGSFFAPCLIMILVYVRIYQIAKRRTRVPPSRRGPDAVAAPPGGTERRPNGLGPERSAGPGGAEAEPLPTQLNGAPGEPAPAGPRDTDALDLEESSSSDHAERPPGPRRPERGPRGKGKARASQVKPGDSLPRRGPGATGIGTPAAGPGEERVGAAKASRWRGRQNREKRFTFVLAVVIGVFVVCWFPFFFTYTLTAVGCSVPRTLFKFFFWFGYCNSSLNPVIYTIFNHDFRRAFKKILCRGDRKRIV

[25] = molecular target: T2, Muscarinic acetylcholine receptor M1 (Homo sapiens) (UniProt P11229); details: Compound concentration 10.0 uM
T2 sequence (whole entry): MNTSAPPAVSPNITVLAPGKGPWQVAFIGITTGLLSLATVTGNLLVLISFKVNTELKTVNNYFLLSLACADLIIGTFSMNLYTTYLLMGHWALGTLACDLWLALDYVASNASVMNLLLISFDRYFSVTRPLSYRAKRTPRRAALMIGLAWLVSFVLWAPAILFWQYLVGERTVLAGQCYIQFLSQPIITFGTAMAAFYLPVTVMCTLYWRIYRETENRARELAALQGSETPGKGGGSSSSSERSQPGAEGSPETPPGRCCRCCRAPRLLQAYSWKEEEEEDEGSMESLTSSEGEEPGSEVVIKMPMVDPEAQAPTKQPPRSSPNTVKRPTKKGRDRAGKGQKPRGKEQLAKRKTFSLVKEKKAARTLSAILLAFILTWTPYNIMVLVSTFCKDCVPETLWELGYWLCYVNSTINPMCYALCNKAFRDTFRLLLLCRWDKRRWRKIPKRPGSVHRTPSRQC

[26] = molecular target: T3, Muscarinic acetylcholine receptor M2 (Homo sapiens) (UniProt P08172); details: Compound concentration 10.0 uM
T3 sequence (whole entry): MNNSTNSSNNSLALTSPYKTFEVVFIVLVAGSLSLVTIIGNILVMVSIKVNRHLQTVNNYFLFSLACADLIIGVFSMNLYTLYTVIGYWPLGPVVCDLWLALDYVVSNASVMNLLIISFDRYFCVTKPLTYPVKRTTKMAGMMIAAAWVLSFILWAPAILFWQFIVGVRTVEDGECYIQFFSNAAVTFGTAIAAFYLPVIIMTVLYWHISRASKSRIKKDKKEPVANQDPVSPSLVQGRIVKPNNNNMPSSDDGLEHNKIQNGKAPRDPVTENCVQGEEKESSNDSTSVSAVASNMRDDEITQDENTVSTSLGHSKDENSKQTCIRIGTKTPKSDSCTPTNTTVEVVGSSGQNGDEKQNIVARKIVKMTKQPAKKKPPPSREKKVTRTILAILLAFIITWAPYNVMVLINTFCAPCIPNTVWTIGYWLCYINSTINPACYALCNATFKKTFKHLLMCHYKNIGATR

Kappa-type opioid receptor (Homo sapiens), sequence (P41145 whole entry): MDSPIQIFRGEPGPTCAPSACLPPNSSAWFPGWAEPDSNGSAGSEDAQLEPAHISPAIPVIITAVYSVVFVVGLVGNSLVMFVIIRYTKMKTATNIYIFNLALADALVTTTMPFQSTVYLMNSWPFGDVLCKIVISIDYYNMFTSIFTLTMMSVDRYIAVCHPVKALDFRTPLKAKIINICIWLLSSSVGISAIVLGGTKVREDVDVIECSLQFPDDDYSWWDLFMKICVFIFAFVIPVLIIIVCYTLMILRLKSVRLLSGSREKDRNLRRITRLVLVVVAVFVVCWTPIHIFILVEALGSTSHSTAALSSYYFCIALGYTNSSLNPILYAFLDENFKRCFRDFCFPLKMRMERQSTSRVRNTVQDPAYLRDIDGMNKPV

## CNC(=O)Nc1ccc2c(c1)CC[C@@]21OC(=O)N(CC(=O)N(Cc2ccc(F)cc2)[C@@H](C)C(F)(F)F)C1=O [A-485]
[1]
  inhibition: 28%
[2]
  inhibition: 12%
[3]
  residual activity: 100%
[4]
  residual activity: 68%
[5]
  residual activity: 100%
[6]
  residual activity: 69%
[7]
  residual activity: 80%
[8]
  residual activity: 96%
[9]
  residual activity: 84%
[10]
  residual activity: 82%
[11]
  residual activity: 72%
[12]
  residual activity: 51%
[13]
  residual activity: 73%
[14]
  residual activity: 58%
[15]
  residual activity: 100%
[16]
  residual activity: 80%
[17]
  residual activity: 100%
[18]
  residual activity: 98%
[19]
  residual activity: 88%
[20]
  residual activity: 90%
[21]
  inhibition: 4.23%
[22]
  inhibition: 81.4%
[23]
  inhibition: 10.1%
[24]
  inhibition: 3.72%
[25]
  inhibition: 2.64%
[26]
  inhibition: -0.28%

## CNC(=O)Nc1ccc2c(c1)[C@@]1(CC2)OC(=O)N(CC(=O)N(Cc2ccc(F)cc2)[C@@H](C)C(F)(F)F)C1=O [A-486]
[1]
  inhibition: 12%
[2]
  inhibition: 2%
[3]
  residual activity: 88%
[4]
  residual activity: 77%
[5]
  residual activity: 100%
[6]
  residual activity: 82%
[7]
  residual activity: 86%
[8]
  residual activity: 0%
[9]
  residual activity: 98%
[10]
  residual activity: 84%
[11]
  residual activity: 67%
[12]
  residual activity: 75%
[13]
  residual activity: 80%
[14]
  residual activity: 69%
[15]
  residual activity: 99%
[16]
  residual activity: 76%
[17]
  residual activity: 100%
[18]
  residual activity: 100%
[19]
  residual activity: 100%
[20]
  residual activity: 67%
[21]
  inhibition: 0.33%
[22]
  inhibition: 29.2%
[23]
  inhibition: 5.16%
[24]
  inhibition: -1.4%
[25]
  inhibition: 5.42%
[26]
  inhibition: 3.15%
